# Data reported in patent US20230210834A1, “RNA METHYLTRANSFERASE INHIBITOR, SCREENING METHOD THEREFOR, ANTI-CANCER AGENT EFFICACY ASSESSMENT MARKER, AND KIT FOR EFFECTIVELY PREDICTING FTSJ1 INHIBITOR” (National University Corporation Okayama University, priority 2019, published 2023).
# Legend:
# YAP/TAZ = assay: Screening: YAP/TAZ activity reporter (8xGTIIC plasmid) assay in NUGC3 cells (luminescence % of DMSO); format: cell-based, human; conditions: YAP/TAZ activity reporter (8×GTIIC), NUGC3 cells, luminescence relative to DMSO; concentration not given
# Method: (§1) Human gastric cancer cell line NUGC3 was cultured in a DMEM medium (high glucose with L-glutamine and phenol red, produced by FUJIFILM Wako Pure Chemical Corporation) containing 10% fetal bovine serum (produced by Thermo Fisher Scientific Inc.) and penicillin-streptomycin (produced by FUJIFILM Wako Pure Chemical Corporation) (this medium is simply referred to below as “DMEM+10% FBS+1×P/S”). Then, the NUGC3 cells were seeded in a 60-mm culture dish (produced by BioLite) so that the cells were 80% confluent after 24 hours. Subsequently, 5 μg of a reporter plasmid and 15 μL of a lipofection reagent (transIT-LT1, produced by Mirus Bio LLC) were mixed in 500 μL of Opti-MEM medium (produced by Thermo Fisher Scientific, Inc.) to form a complex, which was added to the medium in which the NUGC3 cells were cultured in the 60-mm culture dish. For use as the reporter plasmid, 5 μg of a polyglutamine luciferase reporter was introduced (in the polyglutamine luciferase reporter, a Renilla luciferase expressed in the IRES was located as an internal standard downstream of the sequence of a firefly luciferase sequence to which polyglutamine was added). Alternatively, a YAP/TAZ activity reporter was used by simultaneously introducing 3 μg of 8×GTIIC plasmid and 2 μg of a Renilla luciferase reporter as an internal standard. After another 24 hours, the cells were exfoliated with a 0.05 w/v % trypsin-0.53 mmol/l EDTA-4Na solution (produced by FUJIFILM Wako Pure Chemical Corporation), and then seeded in a 96-well plate (produced by BioLite) so that the cells were 80% confluent after 24 hours. Twenty-four hours after seeding in the 96-well plate, the medium in each well was replaced with 100 μL of a medium (DMEM+10% FBS+an antibiotic) containing 10 μM or 5 μM of a compound for evaluation. After another 24 hours, the medium containing the compound was removed, and the 96-well plate was transferred on ice. Each well was washed with 100 μL of phosphate buffer (PBS, produced by FUJIFILM Wako Pure Chemical Corporation). Thereafter, 20 μL of Passive Lysis Buffer (1×) contained in a Dual-Luciferase Reporter Assay System (produced by Promega Corporation) was added. The plate was then gently shaken for 15 minutes at room temperature to lyse the cells. After confirming that the cells were lysed, 10 μL of the lysate was transferred from each well to each corresponding well of a white 96-well plate (produced by Greiner Bio-one). To each well of the white 96-well plate was added 100 μL of a mixture of a Luciferase Assay Buffer II and Luciferase Assay Substrate contained in the Dual-Luciferase Reporter Assay System (produced by Promega Corporation), whereby the luminescence of the firefly luciferase was induced, and the luminescence intensity was detected with a microluminometer (produced by Berthold Japan K.K.). Subsequently, 100 μL of a mixture of Stop & Glo Buffer and Stop & Glo Substrate contained in the Dual-Luciferase Reporter Assay System (produced by Promega Corporation) was added, whereby the luminescence of firefly luciferase was quenched while the luminescence of Renilla luciferase was induced, and the luminescence intensity was detected with a microluminometer (produced by Berthold Japan K.K.) in a manner similar to the above. The ratio of the luminescence intensity of the firefly luciferase and the luminescence intensity of the Renilla luciferase was calculated, and the luminescence intensity (%) of the wells containing each compound was calculated with the luminescence intensity of the well containing DMSO (dimethyl sulfoxide, used as a solvent for the compound liquids) taken as 100%. […] Unless otherwise specified, the measured values in the table represent the results obtained by evaluation with the addition of 10 μM of each compound for evaluation.
# [1] = tested on: polyglutamine luciferase reporter; assay: Screening: polyglutamine luciferase reporter assay in NUGC3 cells (luminescence % of DMSO); format: cell-based, human; conditions: polyglutamine luciferase reporter, NUGC3 cells, luminescence relative to DMSO; concentration not given
# Method: as §1
structure (smiles),measurement,setting,value
CCCCCCS(=O)(=O)c1ccccc1 [PVZF2047],8×GTIIC,YAP/TAZ,63.56%
same,Polyglutamine,[1],48.95%
O=S(=O)(CC1CCCCC1)c1ccccc1 [PVZF2048],8×GTIIC,YAP/TAZ,69.86%
same,Polyglutamine,[1],73.33%
O=S(=O)(CCc1ccccc1)c1ccccc1 [PVZF2050],8×GTIIC,YAP/TAZ,39.57%
same,Polyglutamine,[1],49.43%
O=S(=O)(CCC1CCCCC1)c1ccccc1 [PVZF2051],8×GTIIC,YAP/TAZ,35.1%
same,Polyglutamine,[1],38.06%
O=S(=O)(CC1CCCC1)c1ccc(C2CCCCC2)cc1 [PVZF2064],8×GTIIC,YAP/TAZ,75.47%
same,Polyglutamine,[1],64%
O=S(=O)(CCc1ccccc1)c1ccc(C2CCCCC2)cc1 [PVZF2068],8×GTIIC,YAP/TAZ,74.24%
same,Polyglutamine,[1],53.21%
O=S(=O)(CCCC1CCCCC1)c1ccc(C2CCCCC2)cc1 [PVZF2071],8×GTIIC,YAP/TAZ,70.27%
same,Polyglutamine,[1],63.89%
CC1(C)CC(CS(=O)(=O)c2ccc(C3CCCCC3)cc2)CC(C)(C)S1 [PVZF2072],8×GTIIC,YAP/TAZ,83.58%
same,Polyglutamine,[1],80.1%
CC(C)c1cc(C(C)C)c(S(=O)(=O)CC(c2ccccc2)c2ccc(-c3ccccc3)cc2)c(C(C)C)c1 (centres unmarked) [PVZF2083],8×GTIIC,YAP/TAZ,108.4%
same,Polyglutamine,[1],69%
CC(=O)C1CC(c2cccc(C)c2)CC1c1ccccc1 (centres unmarked) [PZ163],8×GTIIC,YAP/TAZ,103.2%
same,Polyglutamine,[1],71.16%
CCc1ccc(C2=CC(C(C)=O)C(c3ccc(CC)c(C)c3)C2)cc1 (centres unmarked) [PZ173],8×GTIIC,YAP/TAZ,160.5%
same,Polyglutamine,[1],67.61%
CC(=O)C1CC(c2ccc(C)cc2)CC1c1ccc2ccccc2c1 (centres unmarked) [PZ177],8×GTIIC,YAP/TAZ,71.59%
same,Polyglutamine,[1],43.89%
CC(=O)C1C=C(c2ccc(C)cc2)CC1c1ccc2ccccc2c1 (centres unmarked) [PZ178],8×GTIIC,YAP/TAZ,119.3%
same,Polyglutamine,[1],60.25%
CC(=O)C1C=C(c2ccccc2)CC1c1ccc2ccccc2c1 (centres unmarked) [PZ179],8×GTIIC,YAP/TAZ,95.65%
same,Polyglutamine,[1],66.51%
Cc1ccc(S(=O)(=O)CC2CC(C)(C)CC(C)(C)C2)cc1C(F)(F)F [SA001],8×GTIIC,YAP/TAZ,74.98%
same,Polyglutamine,[1],83.34%
Cc1cc(C)c(S(=O)(=O)CC2CC(C)(C)CC(C)(C)C2)cc1C [SA002],8×GTIIC,YAP/TAZ,47.03%
same,Polyglutamine,[1],49.58%
CCCc1cc(C)c(C(C)C)cc1S(=O)(=O)CC1CC(C)(C)CC(C)(C)C1 [SA003],8×GTIIC,YAP/TAZ,46.84%
same,Polyglutamine,[1],37.79%
CCc1cc(C)c(S(=O)(=O)CC2CC(C)(C)CC(C)(C)C2)cc1C(C)C [SA006],8×GTIIC,YAP/TAZ,40.21%
same,Polyglutamine,[1],37.54%
Cc1cc(C)c(S(=O)(=O)CC2CC(C)(C)CC(C)(C)C2)cc1C [SA007],8×GTIIC,YAP/TAZ,56.96%
same,Polyglutamine,[1],55.29%
Cc1cc(C)c(S(=O)(=O)CC2CC(C)(C)CC(C)(C)C2)cc1C [SA008],8×GTIIC,YAP/TAZ,57.06%
same,Polyglutamine,[1],51.03%
Cc1cc(C)c(S(=O)(=O)CC2CC(C)(C)CC(C)(C)C2)cc1C [SA009],8×GTIIC,YAP/TAZ,80.29%
same,Polyglutamine,[1],73.02%
CCc1cc(C)c(S(=O)(=O)CC2CC(C)(C)CC(C)(C)C2)cc1C [SA010],8×GTIIC,YAP/TAZ,64.43%
same,Polyglutamine,[1],59.61%
CCCc1cc(S(=O)(=O)CC2CC(C)(C)CC(C)(C)C2)ccc1C [SA011],8×GTIIC,YAP/TAZ,67.54%
same,Polyglutamine,[1],60.35%
O=C(CCCCc1ccccc1)C1CCC(CS(=O)(=O)c2ccccc2)CC1 (centres unmarked) [SA012],8×GTIIC,YAP/TAZ,91.92%
same,Polyglutamine,[1],86.48%
CC(C)(C)c1cccc(S(=O)(=O)C2CCC(CS(=O)(=O)c3ccccc3)CC2)c1 (centres unmarked) [SA016],8×GTIIC,YAP/TAZ,53.02%
same,Polyglutamine,[1],43.01%
CCOc1cc(S(=O)(=O)C2CCC(NS(=O)(=O)c3ccccc3)CC2)ccc1COC (centres unmarked) [SA018],8×GTIIC,YAP/TAZ,74.98%
same,Polyglutamine,[1],78.85%
Cc1ccc(C(C)(C)C)cc1S(=O)(=O)C1CCC(NS(=O)(=O)c2ccccc2)CC1 (centres unmarked) [SA019],8×GTIIC,YAP/TAZ,66.45%
same,Polyglutamine,[1],55.62%
COc1ccc(S(=O)(=O)C2CCC(CS(=O)(=O)c3c(C)c(C)c(C)c(C)c3C)CC2)cc1 (centres unmarked) [SA020],8×GTIIC,YAP/TAZ,36.19%
same,Polyglutamine,[1],27.71%
CCc1ccc(S(=O)(=O)C2CCC(CS(=O)(=O)c3cc(C)cc(C)c3)CC2)cc1 (centres unmarked) [SA021],8×GTIIC,YAP/TAZ,70.64%
same,Polyglutamine,[1],44.6%
CCCC(=O)C1CCC(CS(=O)(=O)c2ccc3c(c2)CCC(=O)C3)CC1 (centres unmarked) [SA022],8×GTIIC,YAP/TAZ,66.88%
same,Polyglutamine,[1],102.2%
Cc1cc(C)c(S(=O)(=O)CC2CC(C)(C)SC(C)(C)C2)cc1C [SA023],8×GTIIC,YAP/TAZ,87.74%
same,Polyglutamine,[1],63.47%
CCCC(=O)C1CCC(CS(=O)(=O)c2ccc(C)cc2C)CC1 (centres unmarked) [SA025],8×GTIIC,YAP/TAZ,46.27%
same,Polyglutamine,[1],49.45%
CCCC(=O)C1CCC(CS(=O)(=O)c2ccc(C)c(C)c2)CC1 (centres unmarked) [SA026],8×GTIIC,YAP/TAZ,46.21%
same,Polyglutamine,[1],63.06%
Cc1c(C)c(C)c(S(=O)(=O)CC2CC(C)(C)CC(C)(C)C2)c(C)c1C [SA028],8×GTIIC,YAP/TAZ,59.49%
same,Polyglutamine,[1],60.03%
CCCc1ccc(S(=O)(=O)CC2CCC(C3CC3)CC2)cc1OCC (centres unmarked) [SA029],8×GTIIC,YAP/TAZ,65.65%
same,Polyglutamine,[1],58.64%
Cc1cccc(S(=O)(=O)CC2CCC(C3CC3)CC2)c1C (centres unmarked) [SA030],8×GTIIC,YAP/TAZ,73.56%
same,Polyglutamine,[1],86.26%
O=S(=O)(CC1CCC(C2CC2)CC1)c1ccc2c(c1)CCCC2 (centres unmarked) [SA031],8×GTIIC,YAP/TAZ,76.14%
same,Polyglutamine,[1],62.23%
Cc1cc(C)cc(S(=O)(=O)CC2CCC(C3CC3)CC2)c1 (centres unmarked) [SA032],8×GTIIC,YAP/TAZ,88.64%
same,Polyglutamine,[1],80.29%
O=S(=O)(CC1CCC(C2CC2)CC1)c1ccc(C(F)(F)F)cc1 (centres unmarked) [SA033],8×GTIIC,YAP/TAZ,96.16%
same,Polyglutamine,[1],96.01%
Cc1ccccc1S(=O)(=O)CC1CCC(C2CC2)CC1 (centres unmarked) [SA034],8×GTIIC,YAP/TAZ,87.42%
same,Polyglutamine,[1],77.96%
Cc1ccc(S(=O)(=O)CC2CCC(C3CC3)CC2)c(C)c1 (centres unmarked) [SA035],8×GTIIC,YAP/TAZ,116.6%
same,Polyglutamine,[1],98.96%
Cc1cccc(C)c1S(=O)(=O)CC1CCC(C2CC2)CC1 (centres unmarked) [SA036],8×GTIIC,YAP/TAZ,57.59%
same,Polyglutamine,[1],71.57%
Cc1c(C)c(C)c(S(=O)(=O)CC2CCC(C3CC3)CC2)c(C)c1C (centres unmarked) [SA037],8×GTIIC,YAP/TAZ,35.53%
same,Polyglutamine,[1],42.93%
O=S(=O)(CC1CCC(C2CC2)CC1)c1ccc2c(c1)CCCC2 (centres unmarked) [SA038],8×GTIIC,YAP/TAZ,94.4%
same,Polyglutamine,[1],69.77%
CCCc1ccc(S(=O)(=O)CC2CCC(C3CC3)CC2)cc1 (centres unmarked) [SA039],8×GTIIC,YAP/TAZ,56.65%
same,Polyglutamine,[1],97.44%
Cc1ccc(S(=O)(=O)C2CCC(CS(=O)(=O)c3ccccc3)CC2)cc1 (centres unmarked) [SA040],8×GTIIC,YAP/TAZ,51.54%
same,Polyglutamine,[1],44.87%
Cc1cccc(S(=O)(=O)CC2CCC(C3CC3)CC2)c1 (centres unmarked) [SA041],8×GTIIC,YAP/TAZ,87.17%
same,Polyglutamine,[1],88.82%
Cc1ccc(S(=O)(=O)CC2CCC(C3CC3)CC2)cc1C (centres unmarked) [SA042],8×GTIIC,YAP/TAZ,100.9%
same,Polyglutamine,[1],94.62%
CCS(=O)(=O)C1CCC(CS(=O)(=O)c2ccc(C)cc2)CC1 (centres unmarked) [SA044],8×GTIIC,YAP/TAZ,63.33%
same,Polyglutamine,[1],87.25%
CS(=O)(=O)C1CCC(CS(=O)(=O)c2ccc3c(c2)CCCC3)CC1 (centres unmarked) [SA046],8×GTIIC,YAP/TAZ,83.81%
same,Polyglutamine,[1],75.23%
O=S(=O)(CC1CCC(S(=O)(=O)c2cccs2)CC1)c1ccc2c(c1)CCCC2 (centres unmarked) [SA047],8×GTIIC,YAP/TAZ,56.12%
same,Polyglutamine,[1],47.4%
O=S(=O)(CC1CCC(S(=O)(=O)c2ccccc2)CC1)c1ccccc1 (centres unmarked) [SA049],8×GTIIC,YAP/TAZ,43.7%
same,Polyglutamine,[1],39.58%
